In ChEMBL document CHEMBL5096146, “Porphyrin and phthalocyanine photosensitizers designed for targeted photodynamic therapy of colorectal cancer” (Bioorg Med Chem, 2021):
Converted amounts (≈) assume the structure as drawn.

Columns and labels:
HT-29 [1] = assay: Photodynamic cytotoxicity against human HT-29 cells assessed as reduction in cell viability incubated for 3 hrs followed by fresh medium replacement and subsequent red LED irradiation measured after 24 hrs by MTT assay relative to control; assay type: functional
HT-29 [2] = assay: Antitumor activity against human HT-29 cells xenografted in BALB/c mouse assessed as tumor growth inhibition at 250 mg/kg, ip followed by LED irradiation with repeated compound irradiation for thrice upto 3 weeks relative to control; assay type: functional; conditions: HT-29, light or radiation study, 504 h, read-out: TGI
HT-29 [3] = assay: Photodynamic cytotoxicity against human HT-29 cells assessed as reduction in cell viability incubated for 3 hrs followed by fresh medium replacement and subsequent blue LED irradiation measured after 24 hrs by MTT assay relative to control; assay type: functional
HT-29 [4] = assay: Photodynamic cytotoxicity against human HT-29 cells assessed as reduction in cell viability incubated for 3 hrs followed by fresh medium replacement and subsequent white LED irradiation measured after 24 hrs by MTT assay relative to control; assay type: functional
WiDr [5] = assay: Photocytotoxicity against human WiDr cells assessed as lethal dose incubated for 18 hrs followed by replacement of medium containing compound with 48 hrs incubation and subsequent light irradiation of 13.5 mW/cm2 at 435 nm measured after 48 hrs by MTT assay; assay type: functional; conditions: light or radiation study, read-out: LD50 (the source's name)
WiDr [6] = assay: Photodynamic cytotoxicity against human WiDr cells assessed as cell growth inhibition measured after 24 hrs of 10J light irradiation by flow cytometry; assay type: functional, cell-based; conditions: light or radiation study
WiDr [7] = assay: Photodynamic cytotoxicity against human WiDr cells assessed as cell growth inhibition measured after 72 hrs of 10J light irradiation by flow cytometry; assay type: functional, cell-based; conditions: light or radiation study
WiDr [8] = assay: Photodynamic cytotoxicity against human WiDr cells assessed as reduction in cell viability at 50 nM incubated for 24 hrs followed by compound washout and 7.5 mW/cm2 light irradiation measured after 24 hrs by MTT assay relative to control; assay type: functional
HT-29 [9] = assay: Photodynamic cytotoxicity against human HT-29 cells assessed as reduction in cell viability at 19.4 J/cm2 light irradiation followed by immediate fresh medium replacement measured after 24 hrs by MTT assay relative to control; assay type: functional
HT-29 [10] = assay: Photodynamic cytotoxicity against human HT-29 cells assessed as reduction in cell viability at 19.4 J/cm2 light irradiation >570 nm followed by immediate fresh medium replacement measured after 24 hrs by MTT assay relative to control; assay type: functional
HT-29 [11] = assay: Photocytotoxicity against human HT-29 cells assessed as lethal dose incubated for 4 hrs followed by 3 J/cm2 LED irradiation and subsequent compound replenishment measured after 20 hrs by MTT assay; assay type: functional

## C=CC1=C(C)c2cc3[nH]c(cc4nc(cc5[nH]c(cc1n2)c(C)c5C=C)C(C)=C4CCC(=O)O)c(CCC(=O)O)c3C
HT-29 [1]
  Activity: 20%
HT-29 [2]
  inhibition in vivo at 250 mg/kg: 88%
HT-29 [3]
  Activity: 40%
HT-29 [4]
  Activity: 40%

## C[N+](C)(C)c1ccc(-c2c3nc(c(-c4ccc([N+](C)(C)C)cc4)c4ccc([nH]4)c(-c4ccc([N+](C)(C)C)cc4)c4nc(c(-c5ccc([N+](C)(C)C)cc5)c5ccc2[nH]5)C=C4)C=C3)cc1
WiDr [5]
  CC50: 2000 nM

## O=S(=O)(O)c1ccc(-c2c3nc(c(-c4ccc(S(=O)(=O)O)cc4)c4ccc([nH]4)c(-c4ccc(S(=O)(=O)O)cc4)c4nc(c(-c5ccc(S(=O)(=O)O)cc5)c5ccc2[nH]5)C=C4)C=C3)cc1
WiDr [5]
  CC50: 100000 nM

## O=C(O)c1ccc(-c2c3nc(c(-c4ccc(C(=O)O)cc4)c4ccc([nH]4)c(-c4ccc(C(=O)O)cc4)c4nc(c(-c5ccc(C(=O)O)cc5)c5ccc2[nH]5)C=C4)C=C3)cc1
WiDr [5]
  CC50: 15000 nM

## Oc1ccc(-c2c3nc(c(-c4ccc(O)cc4)c4ccc([nH]4)c(-c4ccc(O)cc4)c4nc(c(-c5ccc(O)cc5)c5ccc2[nH]5)C=C4)C=C3)cc1
WiDr [5]
  CC50: 200 nM

## Oc1ccc(Br)c(-c2c3nc(cc4ccc([nH]4)c(-c4cc(O)ccc4Br)c4nc(cc5ccc2[nH]5)C=C4)C=C3)c1
WiDr [6]
  IC50: 180 nM
WiDr [7]
  IC50: 140 nM
WiDr [8]
  Activity: >50%

## Oc1ccc(Cl)c(-c2c3nc(cc4ccc([nH]4)c(-c4cc(O)ccc4Cl)c4nc(cc5ccc2[nH]5)C=C4)C=C3)c1
WiDr [8]
  Activity: >50%

## Oc1ccc(Br)c(-c2c3nc(c(-c4cc(O)ccc4Br)c4ccc([nH]4)c(-c4cc(O)ccc4Br)c4nc(c(-c5cc(O)ccc5Br)c5ccc2[nH]5)C=C4)C=C3)c1
WiDr [6]
  IC50: 464 nM
WiDr [7]
  IC50: 620 nM

## C1=Cc2nc1c(-c1ccc3ccccc3n1)c1ccc([nH]1)c(-c1ccc3ccccc3n1)c1nc(c(-c3ccc4ccccc4n3)c3ccc([nH]3)c2-c2ccc3ccccc3n2)C=C1
HT-29 [9]
  Activity: 80%
HT-29 [10]
  Activity: 10%

## Oc1cccc(-c2c3nc(cc4ccc([nH]4)c(-c4cccc(O)c4)c4nc(cc5ccc2[nH]5)C=C4)C=C3)c1
WiDr [8]
  Activity: >50%

## Oc1cccc(-c2c3nc(cc4ccc([nH]4)c(-c4cccc(O)c4I)c4nc(cc5ccc2[nH]5)C=C4)C=C3)c1I
WiDr [8]
  Activity: >50%

## Oc1cc(-c2c3nc(cc4ccc([nH]4)c(-c4ccc(I)c(O)c4)c4nc(cc5ccc2[nH]5)C=C4)C=C3)ccc1I
WiDr [8]
  Activity: >50%

## Oc1cccc(-c2c3nc(c(-c4cccc(O)c4)c4ccc([nH]4)c(-c4cccc(O)c4)c4nc(c(-c5cccc(O)c5)c5ccc2[nH]5)CC4)C=C3)c1 [TEMOPORFIN]
HT-29 [11]
  LD70: 0.6 µg/mL
HT-29 [11]; Homo sapiens, HT-29, light or radiation study, read-out: LD50 (the source's name)
  CC50: 0.3 µg/mL (≈ 0.441 µM)
